The nature of one data set: in vitro. As to conditions: dog.
The subject of the next data set is A/WSN/33(H1N1) virus. The data set is described as follows: microbe, parasite or virus in culture. The format is cell-based, influenza A virus. As to conditions: for inhibition at 100 µM: read-out: %-inhibition in viral yield reduction assay screening; for EC50: read-out: EC50 viral yield assay.
Data set [1] deals with A/California/7/09(H1N1pdm). Kind of data set: microbe, parasite or virus in culture. As to conditions: Influenza A virus, read-out: EC50 viral yield reduction assay. The format is cell-based.
The test system of the next data set is A/HK/1/68(H3N2). The data set is described as follows: microbe, parasite or virus in culture. The data set is classed as cell-based. As to conditions: Influenza A virus, H3N2, read-out: EC50 viral yield reduction assay.
In data set [2] the test system is H5 PA-PB1 heterodimeric complex. The data set is classed as biochemical, influenza A virus.
A further data set concerns B/Florida/04/2006. The data set is described as follows: microbe, parasite or virus in culture. As to conditions: Influenza B virus, read-out: EC50 viral yield reduction assay. The format is cell-based.
A further data set deals with H1 polymerase (Influenza A virus, UniProt P15659). The data set is described as follows: cell-based. Details: species or system A/WSN/33(H1N1). The note with it: EC50 minigenome luciferase reporter assay. For orientation: Reporter assays use an easily measured gene product as a stand-in for the process of interest.
Where [3] appears, read: Influenza A virus, H1N1|WSN, MDCK.

Molecules are shown by their SMILES. Values joined by “and” are separate entries in the source; they are usually repeats but may differ in a detail not shown here. Identical values can stand only once. Like-named read-outs stand apart in the source and are kept apart here.

By inhibition is commonly meant how much of the control response was suppressed. As usually defined, the EC50 is the concentration giving half of the maximal effect.

Take `Cc1ccccc1NCC(=O)Nc1ccccc1C(=O)NCc1cccc2cn[nH]c12` [Compound 1, N-[(1H-Indazol-7-yl)methyl]-2-[2-(o-tolylamino)acetamido]benzamide]: in “in vitro”, the CC50 is greater than 100 µM. Moreover, the inhibition at 100 µM with A/WSN/33(H1N1) virus (setting [3]) came to 25%.

In the data set “in vitro”, `Cc1ccc(NCC(=O)Nc2ccccc2C(=O)NCc2cccc3cn[nH]c23)cc1` [Compound 2, N-[(1H-Indazol-7-yl)methyl]-2-[2-(p-tolylamino)acetamido]benzamide] gave a CC50 greater than 100 µM. Also, the inhibition at 100 µM in the data set with A/WSN/33(H1N1) virus (setting [3]) stood at 10.2%.

Consider `Cc1cccc(NCC(=O)Nc2ccccc2C(=O)NCc2cccc3cn[nH]c23)c1` [Compound 3, N-[(1H-Indazol-7-yl)methyl]-2-[2-(m-tolylamino)acetamido]benzamide], for which the CC50 in the data set “in vitro” was greater than 100 µM. In addition, the inhibition at 100 µM with A/WSN/33(H1N1) virus (setting [3]) stood at 18.6%.

Turning to `O=C(CNC1CCCCC1)Nc1ccccc1C(=O)NCc1cccc2cn[nH]c12` [Compound 4, N-[(1H-Indazol-7-yl)methyl]-2-[2-(cyclohexylamino)acetamido]benzamide], the CC50 in “in vitro” is greater than 100 µM. Also, the inhibition at 100 µM with A/WSN/33(H1N1) virus (setting [3]) was less than 2%.

In “in vitro”, `O=C(CN1CCSCC1)Nc1ccccc1C(=O)NCc1cccc2cn[nH]c12` [Compound 5, N-[(1H-Indazol-7-yl)methyl]-2-[2-(thiomorpholin-4-yl)acetamido]benzamide] gave a CC50 greater than 100 µM. In the data set with A/WSN/33(H1N1) virus (setting [3]), the inhibition at 100 µM is less than 2%.

`O=C(CNc1ccc(Cl)cc1)Nc1ccccc1C(=O)NCc1cccc2cn[nH]c12` [Compound 6, N-[(1H-Indazol-7-yl)methyl]-2-{2-[(4-chlorophenyl)amino]acetamido}benzamide] came in with a CC50 in the data set “in vitro” greater than 100 µM. For the same compound, in the data set with A/WSN/33(H1N1) virus (setting [3]), the inhibition at 100 µM is less than 2%.

Consider `O=C(CNCc1ccccc1)Nc1ccccc1C(=O)NCc1cccc2cn[nH]c12` [Compound 7, N-[(1H-Indazol-7-yl)methyl]-2-[2-(benzylamino)acetamido]benzamide], for which, in “in vitro”, the CC50 is greater than 50 µM. Besides, the inhibition at 100 µM in the data set on A/WSN/33(H1N1) virus (setting [3]) is less than 2%.

`O=C(CN1CCOCC1)Nc1ccccc1C(=O)NCc1cccc2cn[nH]c12` [Compound 8, N-[(1H-Indazol-7-yl)methyl]-2-(2-morpholinoacetamido)benzamide] had a CC50 in “in vitro” greater than 100 µM. Further, the inhibition at 100 µM in the data set on A/WSN/33(H1N1) virus (setting [3]) was less than 2%.

`O=C(/C=C/c1ccc(Br)cc1)NCc1cccc2cn[nH]c12` [Compound 9, (E)-N-[(1H-Indazol-7-yl)methyl]-3-(4-bromophenyl)acrylamide] yielded a CC50 in the data set “in vitro” greater than 100 µM. For the same compound, the inhibition at 100 µM in the data set with A/WSN/33(H1N1) virus (setting [3]) was less than 2%.

For the compound `O=C(/C=C/c1ccc(Cl)cc1)NCc1cccc2cn[nH]c12` [Compound 10, (E)-N-[(1H-Indazol-7-yl)methyl]-3-(4-chlorophenyl)acrylamide], the CC50 in the data set “in vitro” was greater than 100 µM. In addition, the inhibition at 100 µM in the data set on A/WSN/33(H1N1) virus (setting [3]) was less than 2%.

`O=C(/C=C/c1ccc(C(F)(F)F)cc1)NCc1cccc2cn[nH]c12` [Compound 11, (E)-N-[(1H-Indazol-7-yl)methyl]-3-[4-(trifluoromethyl)phenyl]acrylamide] returned a CC50 in “in vitro” greater than 100 µM. The inhibition at 100 µM in the data set with A/WSN/33(H1N1) virus (setting [3]) is less than 2%.

In “in vitro”, `O=C(/C=C/c1ccc([N+](=O)[O-])cc1)NCc1cccc2cn[nH]c12` [Compound 12, (E)-N-[(1H-Indazol-7-yl)methyl]-3-(4-nitrophenyl)acrylamide] yielded a CC50 greater than 100 µM. In addition, the inhibition at 100 µM with A/WSN/33(H1N1) virus (setting [3]) was 37.3%.

In the data set “in vitro”, `O=C(/C=C/c1ccc(F)cc1)NCc1cccc2cn[nH]c12` [Compound 13, (E)-N-[(1H-Indazol-7-yl)methyl]-3-(4-fluorophenyl)acrylamide] yielded a CC50 greater than 100 µM. The inhibition at 100 µM in the data set with A/WSN/33(H1N1) virus (setting [3]) stood at 30.5%.

In turn, `COc1ccc(/C=C/C(=O)NCc2cccc3cn[nH]c23)cc1` [Compound 14, (E)-N-[(1H-Indazol-7-yl)methyl]-3-(4-methoxyphenyl)acrylamide] gave a CC50 in “in vitro” greater than 100 µM. Besides, the inhibition at 100 µM in the data set on A/WSN/33(H1N1) virus (setting [3]) was determined as 48.4%.

`O=C(/C=C/c1ccc(F)c(F)c1)NCc1cccc2cn[nH]c12` [Compound 15, (E)-N-[(1H-Indazol-7-yl)methyl]-3-(3,4-difluorophenyl)acrylamide]: the CC50 in the data set “in vitro” was greater than 100 µM. In the data set on A/WSN/33(H1N1) virus (setting [3]), the inhibition at 100 µM is 44.1%.

In the case of `O=C(/C=C/c1ccncc1)NCc1cccc2cn[nH]c12` [Compound 16, (E)-N-[(1H-Indazol-7-yl)methyl]-3-(pyridin-4-yl)acrylamide], the CC50 in “in vitro” is greater than 100 µM. Further, in the data set on A/WSN/33(H1N1) virus (setting [3]), the inhibition at 100 µM came to 48.2%.

In the data set “in vitro”, `O=C(/C=C/c1ccco1)NCc1cccc2cn[nH]c12` [Compound 17, (E)-N-[(1H-Indazol-7-yl)methyl]-3-(furan-2-yl)acrylamide] displayed a CC50 greater than 100 µM. The inhibition at 100 µM in the data set with A/WSN/33(H1N1) virus (setting [3]) amounted to 33.9%.

Compound `O=C(/C=C/c1cccs1)NCc1cccc2cn[nH]c12` [Compound 18, (E)-N-[(1H-Indazol-7-yl)methyl]-3-(thiophen-2-yl)acrylamide] came in with a CC50 in the data set “in vitro” greater than 100 µM. In the data set on A/WSN/33(H1N1) virus (setting [3]), the inhibition at 100 µM was less than 2%.

Compound `S=C(NCc1cccc2cn[nH]c12)Nc1ccccc1` [Compound 19, 1-[(1H-Indazol-7-yl)methyl]-3-phenylthiourea] came in with a CC50 in “in vitro” greater than 100 µM. In the data set on A/WSN/33(H1N1) virus (setting [3]), the inhibition at 100 µM is 25%.

Take `Cc1ccc(NC(=S)NCc2cccc3cn[nH]c23)cc1` [Compound 20, 1-[(1H-Indazol-7-yl)methyl]-3-(p-tolyl)thiourea]: the CC50 in the data set “in vitro” is greater than 100 µM. In addition, the inhibition at 100 µM in the data set on A/WSN/33(H1N1) virus (setting [3]) is less than 2%.

In turn, `S=C(NCc1cccc2cn[nH]c12)Nc1cccc(Cl)c1` [Compound 21, 1-[(1H-Indazol-7-yl)methyl]-3-(3-chlorophenyl)thiourea] had a CC50 in “in vitro” greater than 25 µM. In the data set with A/WSN/33(H1N1) virus (setting [3]), the inhibition at 100 µM worked out at 37.5%.

In “in vitro”, `S=C(NCc1cccc2cn[nH]c12)Nc1ccc(Cl)cc1` [Compound 22, 1-[(1H-Indazol-7-yl)methyl]-3-(4-chlorophenyl)thiourea] returned a CC50 greater than 100 µM. Also, the inhibition at 100 µM with A/WSN/33(H1N1) virus (setting [3]) came to 16.9%.

Turning to `S=C(NCc1cccc2cn[nH]c12)Nc1cccc(Cl)c1Cl` [Compound 23, 1-[(1H-Indazol-7-yl)methyl]-3-(2,3-dichlorophenyl)thiourea], the CC50 in the data set “in vitro” was greater than 100 µM. In addition, the inhibition at 100 µM in the data set with A/WSN/33(H1N1) virus (setting [3]) is less than 2%.

For the compound `COc1ccc(NC(=S)NCc2cccc3cn[nH]c23)cc1OC` [Compound 24, 1-[(1H-Indazol-7-yl)methyl]-3-(3,4-dimethoxyphenyl)thiourea], in the data set “in vitro”, the CC50 is greater than 100 µM. The EC50 in data set [1] is 746 nM; in the data set on A/HK/1/68(H3N2) it was 540 nM; with B/Florida/04/2006, 230 nM. For the same compound, the “%-inhibition in viral yield reduction assay screening” value with A/WSN/33(H1N1) virus stood at 99.9%. For the same compound, in the data set on A/WSN/33(H1N1) virus (setting [3]), the inhibition at 100 µM was greater than 90%. Further, the “PA-PB1 complex co-immunoprecipitated compared to DMSO control” value in data set [2] is 64.5% ± 6.2% and 64.5%.

Regarding `S=C(NCc1cccc2cn[nH]c12)Nc1ccc(I)cc1` [Compound 25, 1-[(1H-Indazol-7-yl)methyl]-3-(4-iodophenyl)thiourea], the CC50 in the data set “in vitro” was greater than 100 µM. For the same compound, the inhibition at 100 µM with A/WSN/33(H1N1) virus (setting [3]) stood at 74.4%.

`FC(F)(F)Oc1ccc(NC(=S)NCc2cccc3cn[nH]c23)cc1` [Compound 26, 1-[(1H-Indazol-7-yl)methyl]-3-[4-(trifluoromethoxy)phenyl]thiourea] had a CC50 in the data set “in vitro” greater than 100 µM. Moreover, in the data set on A/WSN/33(H1N1) virus (setting [3]), the inhibition at 100 µM is less than 2%.

With `FC(F)(F)c1ccc(NC(=S)NCc2cccc3cn[nH]c23)cc1` [Compound 27, 1-[(1H-Indazol-7-yl)methyl]-3-[4-(trifluoromethyl)phenyl]thiourea], in “in vitro”, the CC50 is greater than 100 µM. In the data set with A/WSN/33(H1N1) virus, the “%-inhibition in viral yield reduction assay screening” value stood at 94.9%, the “selectivity index (CC50/EC50)” value was greater than 12.5 and the EC50 came out at 8.03 µM. Moreover, in the data set on A/WSN/33(H1N1) virus (setting [3]), the inhibition at 100 µM was greater than 90% and the EC50 worked out at 8.03 µM.

As for `S=C(NCc1ccccc1)NCc1cccc2cn[nH]c12` [Compound 28, 1-[(1H-Indazol-7-yl)methyl]-3-benzylthiourea], the CC50 in “in vitro” was greater than 100 µM. The inhibition at 100 µM with A/WSN/33(H1N1) virus (setting [3]) is less than 2%.

`Fc1ccc(NC(=S)NCc2cccc3cn[nH]c23)cc1` [Compound 29, 1-[(1H-Indazol-7-yl)methyl]-3-(4-fluorophenyl)thiourea] showed a CC50 in the data set “in vitro” greater than 100 µM. The inhibition at 100 µM in the data set with A/WSN/33(H1N1) virus (setting [3]) was less than 2%.

Consider `S=C(NCc1cccc2cn[nH]c12)Nc1ccc(Br)cc1` [Compound 30, 1-[(1H-Indazol-7-yl)methyl]-3-(4-bromophenyl)thiourea], for which, in the data set “in vitro”, the CC50 is greater than 100 µM. For the same compound, in the data set with A/WSN/33(H1N1) virus (setting [3]), the inhibition at 100 µM is less than 2%.

Regarding `N#Cc1ccc(NC(=S)NCc2cccc3cn[nH]c23)cc1` [Compound 31, 1-[(1H-indazol-7-yl)methyl]-3-(4-cyanophenyl)thiourea], the CC50 in “in vitro” is greater than 25 µM. For the same compound, in the data set on A/WSN/33(H1N1) virus, the “%-inhibition in viral yield reduction assay screening” value was found to be 99.9%, the “selectivity index (CC50/EC50)” value is given as greater than 1.73 and the EC50 was determined as 14.6 µM. In addition, in the data set with A/WSN/33(H1N1) virus (setting [3]), the inhibition at 100 µM was greater than 90% and the EC50 worked out at 14.6 µM.

Take `COC(=O)OCOc1c2n(ccc1=O)N([C@@H]1c3ccccc3SCc3c1ccc(F)c3F)[C@@H]1COCCN1C2=O` [baloxavir marboxil, reference compound]: the half-maximal effective concentration (EC50) in the data set on A/WSN/33(H1N1) virus was 0.00095 µM.

On to `NC(=O)c1nc(F)c[nH]c1=O` [favipiravir, reference compound], for which the figures for the EC50 with A/WSN/33(H1N1) virus and at H1 polymerase were 1.57 µM and 441 nM, respectively.

Values taken from article PMC12254823 (Acta Pharmaceutica Sinica. B, 2025).
